Consider 2 molecules from patent publication US20220062258A1, “Heterocyclic derivatives” (Merck Patent GmbH, priority 2019, published 2022).

Each structure is given as a SMILES string.

For one assay, the target named is MetAP-2 (Homo sapiens, UniProt P50579). In words: Degradation of MetAP-2 in HCT116 cells (Western blot, MetAp2/GAPDH signal). Conditions: for Signal MetAp2/GAPDH normalized to untreated (DMSO): HTC116 cells, <1 means degradation. On the set-up: endogenous in cells; host or cells: HCT116. It is filed as cell-based. In general terms: Immunoblotting shows a protein as a band on a membrane.

Assay [1] deals with HUVEC primary endothelial cells. In words: HUVEC proliferation assay (CyQUANT Direct). It is filed as cell-based. Conditions: Homo sapiens, 72 h, 3 days incubation. The method, then:
HUVEC Proliferation Assay
Proliferation of HUVEC primary endothelial cells was used as cell-based mechanistical assay.^25 Applying the CyQUANT@ Direct Cell Proliferation Assay (Invitrogen C35011) which is based on a cell-permeant fluorescent DNA-binding dye, DNA content is used as a direct measure for cell number. Pooled HUVEC cells (Promocell C-12203) are cultivated in the medium supplied by Promocell (Cat No C-22020) for maximum 4 passages. For the assay 500 cells/well are seeded into black 384-well culture plates with clear bottom in 70 μl culture medium and incubated for 6 hours at 37° C., 5% CO2. 10 μl prediluted test compounds are added and cells incubated for 3 days at 37° C., 5% CO2 before measurement of DNA content. CyQUANT detection reagent is prepared according to the manufacturers protocol, 20 μl/well added and incubated at 37° C., 5% CO2 for at least 1 h before measurement of fluorescence at Envision multimode reader (Perkin-Elmer, Waltham) with excitation 480 nm and emission 535 nm (bottom read mode). The assay is performed as dose response with 10 compound dilutions. Inhibitory values (IC50) were determined using the program ASSAY ANALYZER® from GeneData (Basel, Switzerland).

Sequence of MetAP-2 (P50579 whole entry): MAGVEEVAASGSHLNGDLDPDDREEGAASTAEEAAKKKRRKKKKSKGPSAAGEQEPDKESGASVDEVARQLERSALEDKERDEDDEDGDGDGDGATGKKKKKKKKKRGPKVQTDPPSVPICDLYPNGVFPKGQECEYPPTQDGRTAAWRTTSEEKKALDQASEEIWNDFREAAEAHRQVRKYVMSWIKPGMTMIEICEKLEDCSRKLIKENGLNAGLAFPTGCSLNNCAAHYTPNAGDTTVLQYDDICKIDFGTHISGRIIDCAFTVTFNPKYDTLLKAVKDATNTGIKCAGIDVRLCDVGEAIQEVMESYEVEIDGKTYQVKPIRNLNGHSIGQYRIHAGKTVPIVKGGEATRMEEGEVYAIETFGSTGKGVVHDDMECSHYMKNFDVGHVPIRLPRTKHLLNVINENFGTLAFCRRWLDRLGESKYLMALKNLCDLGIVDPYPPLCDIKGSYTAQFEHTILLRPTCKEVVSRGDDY

As to `O=C1CCC(N2C(=O)c3ccc(NCCOCCOCCOCCOCCNC(=O)c4cc5cc(N6CCC(O)(C(=O)NCc7cc(F)cc(F)c7)C6=O)ccc5[nH]4)cc3C2=O)C(=O)N1` (centres unmarked) [Compound A2, 5-[3-[(3,5-difluorophenyl)methylcarbamoyl]-3-hydroxy-2-oxo-pyrrolidin-1-yl]-N-[2-[2-[2-[2-[2-[[2-(2,6-dioxo-3-piperidyl)-1,3-dioxo-isoindolin-5-yl]amino]-ethoxy]ethoxy]ethoxy]ethoxy]ethyl]-1H-indole-2-carboxamide], the “Signal MetAp2/GAPDH normalized to untreated (DMSO)” value at MetAP-2 (0.1 μM, 6 hrs) turned out to be 1.3; on MetAP-2 (1 μM, 6 hrs), 1.6; on MetAP-2 (1 μM, 48 hrs) it was 1.5; at MetAP-2 (10 μM, 6 hrs), 1.1; at MetAP-2 (10 μM, 48 hrs), 0.8. Besides, the “reduction of MetAP-2 protein” value at MetAP-2 (10 μM, after 48 h) turned out to be 20%. In assay [1], this molecule yielded an IC50 of 30 µM.
`O=C1CCC(N2C(=O)c3cccc(NCCOCCOCCOCCOCCOCCNC(=O)c4cc5cc(N6CCC(O)(C(=O)NCc7cc(F)cc(F)c7)C6=O)ccc5[nH]4)c3C2=O)C(=O)N1` (centres unmarked) [Compound A1, 5-[3-[(3,5-difluorophenyl)methylcarbamoyl]-3-hydroxy-2-oxo-pyrrolidin-1-yl]-N-[2-[2-[2-[2-[2-[2-[[2-(2,6-dioxo-3-piperidyl)-1,3-dioxo-isoindolin-4-yl]amino]ethoxy]ethoxy]ethoxy]ethoxy]ethoxy]ethyl]-1H-indole-2-carboxamide]: the “Signal MetAp2/GAPDH normalized to untreated (DMSO)” value at MetAP-2 (0.1 μM, 6 hrs) is reported as 1.3; on MetAP-2 (1 μM, 6 hrs) it was 0.9; at MetAP-2 (1 μM, 48 hrs), 1.2; on MetAP-2 (10 μM, 6 hrs), 0.9; on MetAP-2 (10 μM, 48 hrs), 0.3. Also, the “reduction of MetAP-2 protein” value at MetAP-2 (1 μM, after 6 h) is 15%; on MetAP-2 (1 μM, after 24 h), 40%; at MetAP-2 (10 μM, after 6 h), 10%; on MetAP-2 (10 μM, after 48 h), 70%. Besides, the IC50 in assay [1] stood at 25 µM.

For orientation: IC50 means the concentration at which inhibition is half-maximal. Lower therefore signals greater potency in that assay.
